Our source for the AUC values is ChEMBL document CHEMBL1142772, “Discovery and SAR of biaryl piperidine MCH1 receptor antagonists through solid-phase encoded combinatorial synthesis” (Bioorg Med Chem Lett, 2005).

The nature of the series: Area under curve (time =0-6 hours). The conditions noted are these: rat. Set-up: time < 6 hr. It counts as ADME.

Each structure is given as a SMILES string.

In turn, `CN1CCC(CNC(=O)Nc2cc(Cl)cc(Cl)c2)(c2ccc(-c3cccnc3)cc2)CC1` displayed an AUC of 1.4 µM.
